Consider 28 compounds from patent US20090311217A1, “3-SUBSTITUTED-1H-INDOLE COMPOUNDS, THEIR USE AS MTOR KINASE AND PI3 KINASE INHIBITORS, AND THEIR SYNTHESES” (priority 2008, published 2009).

Read-outs that look alike come from different tables or passages of the source.

In one experiment the target is PI3K-gamma (Homo sapiens, UniProt P48736). In words: PI3K-gamma fluorescence polarization assay. It is filed as biochemical. In a few lines: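 Reactions in 5 mM HEPES pH 7, 2.5 mM MgCl2, 25 μM ATP with 2.5 μM diC8-PI(4,5)P2 and 5 ng enzyme, 1 h at 25° C, then EDTA quench. Product detected by FP using GST-GRP1 PH domain (100 nM) and BODIPY-TMR-IP4 tracer (5 nM); final DMSO 0.8%.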
Chain of PI3K-gamma (P48736 whole entry, species assumed, the tested form may be a part): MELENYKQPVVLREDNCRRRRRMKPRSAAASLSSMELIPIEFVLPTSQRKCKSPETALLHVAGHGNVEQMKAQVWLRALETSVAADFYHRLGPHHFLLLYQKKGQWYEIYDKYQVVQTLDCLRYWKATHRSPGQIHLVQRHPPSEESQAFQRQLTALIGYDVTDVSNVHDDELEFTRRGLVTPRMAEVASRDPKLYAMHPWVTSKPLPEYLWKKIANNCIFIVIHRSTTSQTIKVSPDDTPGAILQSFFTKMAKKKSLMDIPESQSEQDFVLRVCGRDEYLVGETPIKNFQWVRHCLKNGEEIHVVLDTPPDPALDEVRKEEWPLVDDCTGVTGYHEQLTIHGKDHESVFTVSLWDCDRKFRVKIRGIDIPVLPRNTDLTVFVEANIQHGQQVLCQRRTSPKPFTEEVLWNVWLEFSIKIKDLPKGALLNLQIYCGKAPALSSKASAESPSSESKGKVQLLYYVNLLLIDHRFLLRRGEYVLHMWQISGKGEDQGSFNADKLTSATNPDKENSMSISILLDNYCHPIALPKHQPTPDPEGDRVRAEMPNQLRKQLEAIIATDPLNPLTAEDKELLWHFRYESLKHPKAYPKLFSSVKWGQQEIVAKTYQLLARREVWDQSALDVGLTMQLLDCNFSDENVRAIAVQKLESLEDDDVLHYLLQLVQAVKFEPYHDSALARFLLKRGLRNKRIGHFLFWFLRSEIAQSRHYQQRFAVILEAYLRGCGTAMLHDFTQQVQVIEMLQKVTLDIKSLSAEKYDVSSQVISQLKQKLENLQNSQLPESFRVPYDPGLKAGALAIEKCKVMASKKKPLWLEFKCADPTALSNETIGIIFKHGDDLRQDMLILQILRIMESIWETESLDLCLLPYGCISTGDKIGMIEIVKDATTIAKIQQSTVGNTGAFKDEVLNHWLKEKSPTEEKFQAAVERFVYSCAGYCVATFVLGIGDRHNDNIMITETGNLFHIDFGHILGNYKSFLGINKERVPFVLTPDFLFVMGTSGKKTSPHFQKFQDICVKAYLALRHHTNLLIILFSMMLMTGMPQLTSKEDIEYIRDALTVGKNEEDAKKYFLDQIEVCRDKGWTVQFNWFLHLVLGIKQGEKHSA
(In fluorescence polarisation assays a small probe gives low polarisation when free and higher when bound to something large.)

The next experiment deals with PI3K-alpha (Homo sapiens, UniProt P42336). As to the kind of experiment: PI3K-alpha fluorescence polarization assay. It is filed as biochemical. Particulars: read-out: PI3Kα Avg. IC50.
Chain of PI3K-alpha (P42336 whole entry, species assumed): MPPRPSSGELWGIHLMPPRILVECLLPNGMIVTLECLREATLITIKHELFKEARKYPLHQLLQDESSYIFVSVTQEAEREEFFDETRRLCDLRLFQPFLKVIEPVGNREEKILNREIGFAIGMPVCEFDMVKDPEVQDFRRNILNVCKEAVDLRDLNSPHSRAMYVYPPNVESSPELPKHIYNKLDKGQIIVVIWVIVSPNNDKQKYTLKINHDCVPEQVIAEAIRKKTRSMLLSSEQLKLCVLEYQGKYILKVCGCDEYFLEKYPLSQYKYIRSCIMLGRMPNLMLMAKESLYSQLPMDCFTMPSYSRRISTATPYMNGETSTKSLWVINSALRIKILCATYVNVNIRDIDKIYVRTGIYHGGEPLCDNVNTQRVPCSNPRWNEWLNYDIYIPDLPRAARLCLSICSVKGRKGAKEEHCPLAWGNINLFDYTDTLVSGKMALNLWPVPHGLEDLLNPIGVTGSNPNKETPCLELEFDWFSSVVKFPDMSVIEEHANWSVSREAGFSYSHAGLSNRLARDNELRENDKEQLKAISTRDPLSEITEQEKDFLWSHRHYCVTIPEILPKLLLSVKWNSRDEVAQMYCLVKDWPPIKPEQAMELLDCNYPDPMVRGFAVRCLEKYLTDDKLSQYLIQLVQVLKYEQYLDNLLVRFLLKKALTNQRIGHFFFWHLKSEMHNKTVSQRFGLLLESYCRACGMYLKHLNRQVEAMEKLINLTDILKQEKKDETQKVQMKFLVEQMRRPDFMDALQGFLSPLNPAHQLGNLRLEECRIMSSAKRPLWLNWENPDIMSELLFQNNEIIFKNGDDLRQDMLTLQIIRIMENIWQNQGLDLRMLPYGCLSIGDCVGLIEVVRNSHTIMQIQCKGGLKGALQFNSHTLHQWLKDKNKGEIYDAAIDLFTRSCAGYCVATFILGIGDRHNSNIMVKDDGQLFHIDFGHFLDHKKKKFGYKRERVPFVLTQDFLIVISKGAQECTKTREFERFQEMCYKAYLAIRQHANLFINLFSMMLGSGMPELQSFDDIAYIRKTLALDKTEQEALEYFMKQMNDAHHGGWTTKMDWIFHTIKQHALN
Chain of PI3K-alpha (P27986 whole entry partner, species assumed): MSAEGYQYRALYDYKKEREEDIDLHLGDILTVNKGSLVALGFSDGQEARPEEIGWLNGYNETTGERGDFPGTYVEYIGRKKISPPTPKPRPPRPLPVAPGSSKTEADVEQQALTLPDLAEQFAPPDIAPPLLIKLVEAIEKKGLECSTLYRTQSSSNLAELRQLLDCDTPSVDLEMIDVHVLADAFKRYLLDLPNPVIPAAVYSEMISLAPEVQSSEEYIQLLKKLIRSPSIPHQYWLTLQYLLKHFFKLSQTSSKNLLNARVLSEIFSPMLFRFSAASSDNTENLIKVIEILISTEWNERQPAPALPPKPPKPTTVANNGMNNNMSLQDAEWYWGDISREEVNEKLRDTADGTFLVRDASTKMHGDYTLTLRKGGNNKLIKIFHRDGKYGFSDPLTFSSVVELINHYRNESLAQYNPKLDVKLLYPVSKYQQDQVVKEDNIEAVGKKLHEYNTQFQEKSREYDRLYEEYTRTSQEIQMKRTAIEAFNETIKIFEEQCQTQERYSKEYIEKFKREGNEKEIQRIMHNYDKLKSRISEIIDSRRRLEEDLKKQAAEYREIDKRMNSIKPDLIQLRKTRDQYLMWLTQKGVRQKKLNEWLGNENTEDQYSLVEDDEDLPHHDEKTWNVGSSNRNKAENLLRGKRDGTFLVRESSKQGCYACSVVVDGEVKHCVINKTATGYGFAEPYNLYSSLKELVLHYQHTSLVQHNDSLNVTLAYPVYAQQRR

Regarding `Cc1[nH]c2ccc(Br)cc2c1/C=C1\Oc2c(ccc(O)c2O)C1=O` [Example 66, (2Z)-2-[(5-bromo-2-methyl-1H-indol-3-yl)methylene]-6,7-dihydroxy-1-benzofuran-3(2H)-one], the IC50 against PI3K-gamma (PI3Kγ Avg. IC50) was 2910 nM; on PI3K-alpha it was 232 nM.

For `CNC(=O)Nc1ccc2c(c1)C(=O)/C(=C/c1c(C3=CCNCC3)[nH]c3ccc(OC)cc13)O2` [Compound 606, 1-[(2Z)-2-{[5-methoxy-2-(1,2,3,6-tetrahydropyridin-4-yl)-1H-indol-3-yl]methylidene}-3-oxo-2,3-dihydro-1-benzofuran-5-yl]-3-methylurea], the results for the IC50 at PI3K-gamma (PI3Kγ Avg. IC50) and at PI3K-alpha were 113 nM and 8 nM, respectively.

Take `CCNC(=O)Nc1ccc2c(c1)C(=O)/C(=C/c1c[nH]c3ccc(OC)cc13)O2` [Compound 489, 1-ethyl-3-{(2Z)-2-[(5-methoxy-1H-indol-3-yl)methylene]-3-oxo-2,3-dihydro-1-benzofuran-5-yl}urea]: the half-maximal inhibitory concentration (IC50) against PI3K-gamma (PI3Kγ Avg. IC50) was greater than 10000 nM; at PI3K-alpha, 6220 nM.

Regarding `COc1ccc2[nH]cc(/C=C3\Oc4cc(O)c(O)cc4C3=O)c2c1` [Compound 529, (2Z)-5,6-dihydroxy-2-[(5-methoxy-1H-indol-3-yl)methylene]-1-benzofuran-3(2H)-one], the IC50 on PI3K-gamma (PI3Kγ Avg. IC50) came to 8050 nM; on PI3K-alpha it was 221 nM.

On to `CNC(=O)Nc1ccc2c(c1)C(=O)/C(=C/c1c(C)n(CCCN3CCOCC3)c3ccc(OC)cc13)O2` [Compound 585, 1-[(2Z)-2-{[5-methoxy-2-methyl-1-(3-morpholin-4-ylpropyl)-1H-indol-3-yl]methylene}-3-oxo-2,3-dihydro-1-benzofuran-5-yl]-3-methylurea], for which the half-maximal inhibitory concentration (IC50) was 138 nM on PI3K-gamma (PI3Kγ Avg. IC50) and 11 nM at PI3K-alpha.

Consider `COc1ccc2c(c1)c(/C=C1\Oc3ccc(NC(=O)NC4CNC4)cc3C1=O)cn2CCN1CCN(C)CC1` [Compound 552, 1-azetidin-3-yl-3-[(2Z)-2-({5-methoxy-1-[2-(4-methylpiperazin-1-yl)ethyl]-1Hindol-3-yl}methylene)-3-oxo-2,3-dihydro-1-benzofuran-5-yl]urea], for which the concentration for half-maximal inhibition (IC50) on PI3K-gamma (PI3Kγ Avg. IC50) is greater than 10000 nM; on PI3K-alpha, 355 nM.

Regarding `CNC(=O)Nc1ccc2c(c1)C(=O)/C(=C/c1c[nH]c3c(/C=C/CN4CCOCC4)cc(OC)cc13)O2` [Compound 567, 1-[(2Z)-2-({5-methoxy-7-[(1E)-3-morpholin-4-ylprop-1-en-1-yl]-1H-indol-3-yl}methylene)-3-oxo-2,3-dihydro-1-benzofuran-5-yl]-3-methylurea], the results for the IC50 against PI3K-gamma (PI3Kγ Avg. IC50) and at PI3K-alpha were 1550 nM and 164 nM, respectively.

In the case of “4-hydroxy-2-[(1-{2-[4-(2-hydroxyethyl)piperazin-1-yl]ethyl}-5-methoxy-2-methyl-1H-indol-3-yl)methylene]-1-benzofuran-3(2H)-one [Example 131]”, the IC50 on PI3K-gamma (read-out: PI3Kγ Avg. IC50) turned out to be 3970 nM; on PI3K-alpha it was 478 nM.

For the compound `CNC(=O)Nc1ccc2c(c1)C(=O)/C(=C/c1c(C3CCCCC3)n(CCN3CCN(C)CC3)c3ccc(OC)cc13)O2` [Compound 533, 1-[(2Z)-2-({2-cyclohexyl-5-methoxy-1-[2-(4-methylpiperazin-1-yl)ethyl]-1H-indol-3-yl}methylene)-3-oxo-2,3-dihydro-1-benzofuran-5-yl]-3-methylurea], the IC50 against PI3K-gamma (PI3Kγ Avg. IC50) stood at 389 nM; on PI3K-alpha, 2.2 nM.

Consider “6,7-dihydroxy-2-{[5-methoxy-2-methyl-1-(4-morpholin-4-ylbutyl)-1H-indol-3-yl]methylene}-1-benzofuran-3(2H)-one [Example 133]”, for which the half-inhibitory concentration (IC50) at PI3K-gamma (read-out: PI3Kγ Avg. IC50) came out at 954 nM; on PI3K-alpha it was 230 nM.

Regarding `CNC(=O)Nc1ccc2c(c1)C(=O)/C(=C/c1c[nH]c3c(CN4CCN(C)CC4)cc(OC)cc13)O2` [Compound 571, 1-[(2Z)-2-({5-methoxy-7-[(4-methylpiperazin-1-yl)methyl]-1H-indol-3-yl}methylene)-3-oxo-2,3-dihydro-1-benzofuran-5-yl]-3-methylurea], the IC50 is 6440 nM against PI3K-gamma (PI3Kγ Avg. IC50) and 612 nM on PI3K-alpha.

Take `CNC(=O)Nc1ccc2c(c1)C(=O)/C(=C/c1c(C)n(CCN3CCCC3)c3ccc(OC)cc13)O2` [Compound 611, 1-[(2Z)-2-{[5-methoxy-2-methyl-1-(2-pyrrolidin-1-ylethyl)-1H-indol-3-yl]methylidene}-3-oxo-2,3-dihydro-1-benzofuran-5-yl]-3-methylurea]: the IC50 against PI3K-gamma (PI3Kγ Avg. IC50) was 712 nM; at PI3K-alpha it was 19.5 nM.

On to `COc1cc(/C=C/CN2CCN(C)CC2)c2c(c1)c(/C=C1\Oc3cc(O)ccc3C1=O)cn2C` [Compound 582, (2Z)-6-hydroxy-2-({5-methoxy-1-methyl-7-[(1E)-3-(4-methylpiperazin-1-yl)prop-1-en-1-yl]-1H-indol-3-yl}methylene)-1-benzofuran-3(2H)-one], for which the IC50 is 3570 nM on PI3K-gamma (PI3Kγ Avg. IC50) and 183 nM on PI3K-alpha.

As for `CCc1cc(OC)cc2c(/C=C3\Oc4cc(O)ccc4C3=O)cn(CCN3CCN(C)CC3)c12` [Compound 473, (2Z)-2-({7-ethyl-5-methoxy-1-[2-(4-methylpiperazin-1-yl)ethyl]-1H-indol-3-yl}methylene)-6-hydroxy-1-benzofuran-3(2H)-one], the IC50 stood at 2610 nM against PI3K-gamma (PI3Kγ Avg. IC50) and 162 nM at PI3K-alpha.

As to `CNC(=O)Nc1ccc2c(c1)C(=O)/C(=C/c1c(C)n(CCN(C)C)c3ccc(OC)cc13)O2` [Compound 610, 1-[(2Z)-2-({1-[2-(dimethylamino)ethyl]-5-methoxy-2-methyl-1H-indol-3-yl}methylidene)-3-oxo-2,3-dihydro-1-benzofuran-5-yl]-3-methylurea], the 50% inhibitory concentration (IC50) was found to be 106 nM on PI3K-gamma (PI3Kγ Avg. IC50) and 11.5 nM at PI3K-alpha.

As to `CNC(=O)Nc1ccc2c(c1)C(=O)/C(=C/c1c(C(=O)N(C)C)[nH]c3ccc(OC)cc13)O2` [Compound 600, 5-methoxy-N,N-dimethyl-3-[(Z)-{5-[(methylcarbamoyl)amino]-3-oxo-1-benzofuran-2(3H)-ylidene}methyl]-1H-indole-2-carboxamide], the 50% inhibitory concentration (IC50) on PI3K-gamma (PI3Kγ Avg. IC50) is 128 nM; at PI3K-alpha, 24 nM.

On to `Cn1cc(/C=C2\Oc3ccc(NC(=O)Nc4cccnc4)cc3C2=O)c2c(-c3ccccc3)cccc21` [Compound 535, 1-{(2Z)-2-[(1-methyl-4-phenyl-1H-indol-3-yl)methylene]-3-oxo-2,3-dihydro-1-benzofuran-5-yl}-3-pyridin-3-ylurea], for which the IC50 against PI3K-gamma (PI3Kγ Avg. IC50) and on PI3K-alpha was greater than 10000 nM each time.

Regarding `COc1ccc2[nH]cc(/C=C3\Oc4ccc(NC(=O)NC5CCCCC5)cc4C3=O)c2c1` [Compound 488, 1-cyclohexyl-3-{(2Z)-2-[(5-methoxy-1H-indol-3-yl)methylene]-3-oxo-2,3-dihydro-1-benzofuran-5-yl}urea], the half-maximal inhibitory concentration (IC50) against PI3K-gamma (PI3Kγ Avg. IC50) and on PI3K-alpha was greater than 10000 nM in each case.

Turning to `COc1ccc2c(c1)c(C=C1Oc3cccc(O)c3C1=O)c(C)n2CCCCCl` [Example 123, 2-{[1-(4-chlorobutyl)-5-methoxy-2-methyl-1H-indol-3-yl]methylene}-4-hydroxy-1-benzofuran-3(2H)-one], the IC50 was greater than 10000 nM on PI3K-gamma (PI3Kγ Avg. IC50) and 1220 nM at PI3K-alpha.

As to `CNC(=O)Nc1ccc2c(c1)C(=O)/C(=C/c1cn(CCCC#N)c3ccc(OC)cc13)O2` [Compound 579, 1-[(2Z)-2-{[1-(3-cyanopropyl)-5-methoxy-1H-indol-3-yl]methylene}-3-oxo-2,3-dihydro-1-benzofuran-5-yl]-3-methylurea], the figures for the half-maximal inhibitory concentration (IC50) on PI3K-gamma (PI3Kγ Avg. IC50) and at PI3K-alpha were 128 nM and 30 nM, respectively.

As for `Cc1cccc2c1c(/C=C1\Oc3cc(O)cc(O)c3C1=O)c(-c1ccccc1)n2C` [Compound 476, (2Z)-2-[(1,4-dimethyl-2-phenyl-1H-indol-3-yl)methylene]-4,6-dihydroxy-1-benzofuran-3(2H)-one], the IC50 on PI3K-gamma (PI3Kγ Avg. IC50) turned out to be 1640 nM; at PI3K-alpha, 412 nM.

Turning to `COc1ccc2[nH]cc(CC3Oc4cc(O)cc(O)c4C3=O)c2c1` (centres unmarked) [Example 117, 4,6-dihydroxy-2-[(5-methoxy-1H-indol-3-yl)methyl]-1-benzofuran-3(2H)-one], the IC50 turned out to be 8600 nM against PI3K-gamma (PI3Kγ Avg. IC50) and 1840 nM on PI3K-alpha.

Turning to `CNC(=O)Nc1ccc2c(c1)C(=O)/C(=C/c1c(-c3ccncc3)n(CCN3CCN(C)CC3)c3ccc(OC)cc13)O2` [Compound 590, 1-[(2Z)-2-({5-methoxy-1-[2-(4-methylpiperazin-1-yl)ethyl]-2-pyridin-4-yl-1Hindol-3-yl}methylene)-3-oxo-2,3-dihydro-1-benzofuran-5-yl]-3-methylurea], the 50% inhibitory concentration (IC50) at PI3K-gamma (PI3Kγ Avg. IC50) worked out at 1020 nM; on PI3K-alpha, 3.67 nM.

Regarding `N#CCCCn1cc(C=C2Oc3cc(O)cc(O)c3C2=O)c2cc(F)ccc21` [Example 231, 4-{3-[(4,6-dihydroxy-3-oxo-1-benzofuran-2(3H)-ylidene)methyl]-5-fluoro-1H-indol-1-yl}butanenitrile], the concentration for half-maximal inhibition (IC50) was greater than 10000 nM at PI3K-gamma (PI3Kγ Avg. IC50) and 3500 nM at PI3K-alpha.

As for `Cn1cc(/C=C2\Oc3ccc(N)cc3C2=O)c2c(-c3ccccc3)cccc21` [Compound 534, (2Z)-5-amino-2-[(1-methyl-4-phenyl-1H-indol-3-yl)methylene]-1-benzofuran-3(2H)-one], the concentration for half-maximal inhibition (IC50) against PI3K-gamma (PI3Kγ Avg. IC50) came to 476 nM; on PI3K-alpha it was 5880 nM.

`COc1ccc2[nH]cc(/C=C3\Oc4cc(C#N)ccc4C3=O)c2c1` [Compound 508, (2Z)-2-[(5-methoxy-1H-indol-3-yl)methylene]-3-oxo-2,3-dihydro-1-benzofuran-6-carbonitrile]: the IC50 at PI3K-gamma (PI3Kγ Avg. IC50) is greater than 10000 nM; on PI3K-alpha it was 8500 nM.

`COc1ccc2[nH]cc(C=C3Oc4cc(C(N)=O)ccc4C3=O)c2c1` [Compound 495, 2-[(5-methoxy-1H-indol-3-yl)methylene]-3-oxo-2,3-dihydro-1-benzofuran-6-carboxamide]: the IC50 against PI3K-gamma (PI3Kγ Avg. IC50) and on PI3K-alpha was greater than 10000 nM each time.

On to `CCNC(=O)Nc1ccc2c(c1)C(=O)/C(=C/c1cn(CCCN(C)C)c3ccc(OC)cc13)O2` [Compound 547, 1-[(2Z)-2-({1-[3-(dimethylamino)propyl]-5-methoxy-1H-indol-3-yl}methylene)-3-oxo-2,3-dihydro-1-benzofuran-5-yl]-3-ethylurea], for which the half-maximal inhibitory concentration (IC50) at PI3K-gamma (PI3Kγ Avg. IC50) was 2120 nM; on PI3K-alpha it was 63 nM.

A word on the IC50: it is the concentration at which inhibition is half-maximal.
